Reference: the supplement of paper PMC6045584
± gives the standard deviation of the averaged measurements.

How the values were obtained:
SNX-5422 [1] = compound: T1, CC1(C)CC(=O)c2c(C(F)(F)F)nn(-c3ccc(C(N)=O)c(N[C@H]4CC[C@H](OC(=O)CN)CC4)c3)c2C1 [SNX-5422]; experiment: surviving fraction relative to DMSO-only wells; higher = less growth inhibition; settings: exposure time: 5 days
In short: (§1)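 Inhibitors at 0.5, 1, 5, 10, 50, 100, 500 and 1000 nM were applied continuously for five days to tumour cell lines seeded in log phase at 250–500 cells per well in 384-well plates 24 hours earlier. Viability was measured by CellTiter-Glo luminescence and expressed as surviving fraction relative to the median of DMSO-only wells. Luminescence was taken after 10 minutes at room temperature.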

TIOGUANINE = compound: Nc1nc2[nH]cnc2c(=S)[nH]1 [TIOGUANINE]; experiment: as above; settings: exposure time: 5 days
In short: as §1

SNX-5422 [2] = compound: T1, SNX-5422; experiment: area under dose-response curve of surviving fraction (unscaled, Aref=0) (surviving fraction x log10(nM)); higher = more resistant; settings: exposure time: 5 days; dose range 0.5-1000 nM
In short: (§2)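 Inhibitor was applied to tumour cell lines at eight concentrations (0.5 to 1000 nM) for five days in 384-well plates. Luminescence from CellTiter-Glo, scaled to DMSO-only wells, gave surviving fractions in three screens per line, and these were fitted by 3-parameter logistic regression with the drc R package. The area under the curve is an unscaled activity area. Aref was 0, and dose was on a log10 scale.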

SAPACITABINE = compound: CCCCCCCCCCCCCCCC(=O)Nc1ccn([C@@H]2O[C@H](CO)[C@@H](O)[C@@H]2C#N)c(=O)n1 [SAPACITABINE]; experiment: as above; settings: exposure time: 5 days; dose range 0.5-1000 nM
In short: as §2

AFATINIB = compound: CN(C)C/C=C/C(=O)Nc1cc2c(Nc3ccc(F)c(Cl)c3)ncnc2cc1O[C@H]1CCOC1 [AFATINIB]; experiment: as above; settings: exposure time: 5 days; dose range 0.5-1000 nM
In short: as §2

[3] = compound: Cn1cc(C2=Nc3cc(NC(=O)C(N)C4CCCCC4)cc4c3C2=CNNC4=O)cn1; experiment: as above; settings: exposure time: 5 days; dose range 0.5-1000 nM
In short: as §2

Row | Test System | surviving fraction (SNX-5422 [1]; 0.5 nM) | surviving fraction (SNX-5422 [1]; 1 nM) | surviving fraction (SNX-5422 [1]; 5 nM) | surviving fraction (SNX-5422 [1]; 10 nM) | surviving fraction (SNX-5422 [1]; 50 nM) | surviving fraction (SNX-5422 [1]; 100 nM) | surviving fraction (SNX-5422 [1]; 500 nM) | surviving fraction (SNX-5422 [1]; 1000 nM) | surviving fraction (TIOGUANINE; 0.5 nM) | surviving fraction (TIOGUANINE; 1 nM) | surviving fraction (TIOGUANINE; 5 nM) | surviving fraction (TIOGUANINE; 10 nM) | surviving fraction (TIOGUANINE; 50 nM) | surviving fraction (TIOGUANINE; 100 nM) | surviving fraction (TIOGUANINE; 500 nM) | surviving fraction (TIOGUANINE; 1000 nM) | area under dose-response curve (SNX-5422 [2]) | area under dose-response curve (SAPACITABINE) | area under dose-response curve (AFATINIB) | area under dose-response curve [3]
1 | ZR751 BREAST | 1.04 ± 0.12 | 1.45 ± 0.57 | 1.08 ± 0.11 | 1.34 ± 0.18 | 0.652 ± 0.071 | 0.513 ± 0.036 | 0.218 ± 0.024 | 0.217 ± 0.017 | 1.01 ± 0.07 | 0.969 ± 0.16 | 0.82 ± 0.16 | 0.897 ± 0.064 | 1.12 ± 0.13 | 1.02 ± 0.16 | 1.04 ± 0.013 | 1.07 ± 0.15 | 2.39 | 2.9 | 2.83 | 2.71
2 | SIHA CERVIX | 1.11 ± 0.1 | 1.1 ± 0.096 | 1.21 ± 0.055 | 1.23 ± 0.095 | 0.423 ± 0.034 | 0.262 ± 0.002 | 0.2 ± 0.0087 | 0.188 ± 0.0084 | 0.848 ± 0.07 | 0.858 ± 0.097 | 0.994 ± 0.044 | 0.967 ± 0.084 | 0.97 ± 0.043 | 0.987 ± 0.078 | 0.817 ± 0.029 | 0.856 ± 0.029 | 2.2 | 3.12 | 3.2 | 3.22
3 | CHLA90 AUTONOMIC GANGLIA | 0.995 ± 0.028 | 1.07 ± 0.075 | 1.04 ± 0.041 | 1.026 ± 0.0046 | 0.251 ± 0.028 | 0.227 ± 0.029 | 0.129 ± 0.0096 | 0.141 ± 0.0081 | 0.95 ± 0.029 | 0.99 ± 0.04 | 1 ± 0.038 | 0.948 ± 0.034 | 0.96 ± 0.043 | 0.913 ± 0.08 | 0.88 ± 0.057 | 0.912 ± 0.048 | 2.04 | 2.09 | 2.76 | 2.37
4 | NCIH441 LUNG | 0.996 ± 0.029 | 0.976 ± 0.036 | 0.972 ± 0.076 | 1.03 ± 0.062 | 0.748 ± 0.093 | 0.748 ± 0.062 | 0.365 ± 0.04 | 0.324 ± 0.019 | 0.963 ± 0.053 | 1.03 ± 0.082 | 0.971 ± 0.032 | 0.955 ± 0.079 | 1.03 ± 0.024 | 1.02 ± 0.017 | 1.01 ± 0.091 | 0.976 ± 0.058 | 2.63 | 2.28 | 3.02 | 2.85
5 | HMT3552 BREAST | 1.04 | 1.05 | 1.12 | 1.08 | 0.171 | 0.106 | 0.082 | 0.079 | 1.11 | 1.06 | 1.05 | 1.04 | 1.05 | 1.12 | 0.591 | 0.38 | – | 2.99 | – | –
6 | HS57T BREAST | 1.1 ± 0.014 | 1.09 ± 0.046 | 1.15 ± 0.034 | 1.13 ± 0.034 | 0.215 ± 0.011 | 0.22 ± 0.016 | 0.127 ± 0.0093 | 0.126 ± 0.0052 | 0.9547 ± 0.0035 | 1.02 ± 0.087 | 0.99 ± 0.03 | 0.988 ± 0.029 | 0.928 ± 0.04 | 1.03 ± 0.06 | 0.928 ± 0.016 | 0.945 ± 0.064 | – | – | – | –
7 | CME SYNOVIAL | 1.05 ± 0.06 | 1.21 ± 0.062 | 1.23 ± 0.074 | 1.35 ± 0.077 | 1.01 ± 0.18 | 0.276 ± 0.0067 | 0.287 ± 0.011 | 0.365 ± 0.034 | 1.07 ± 0.067 | 1.22 ± 0.12 | 1.16 ± 0.051 | 1.22 ± 0.03 | 1.29 ± 0.021 | 1.32 ± 0.19 | 1.24 ± 0.054 | 1.08 ± 0.18 | 2.5 | 1.45 | 4.36 | –
8 | SG27 HEADNECK | 1.04 ± 0.13 | 1.06 ± 0.13 | 1 ± 0.14 | 1.06 ± 0.079 | 1.68 ± 0.3 | 1.26 ± 0.088 | 0.071 ± 0.017 | 0.0733 ± 0.046 | 0.982 ± 0.054 | 0.995 ± 0.12 | 1.04 ± 0.091 | 0.984 ± 0.13 | 1 ± 0.089 | 1.02 ± 0.12 | 1.11 ± 0.024 | 0.953 ± 0.13 | 2.78 | – | 3.13 | 3.1
9 | 143B BONE | 1 ± 0.056 | 0.985 ± 0.0099 | 1.02 ± 0.037 | 0.996 ± 0.0057 | 0.365 ± 0.016 | 0.149 ± 0.0028 | 0.087 ± 0.0071 | 0.091 ± 0.011 | 0.986 ± 0.015 | 1.01 ± 0.018 | 0.993 ± 0.025 | 0.999 ± 0.0071 | 0.9995 ± 0.0092 | 1.01 ± 0.028 | 0.904 ± 0.0014 | 0.707 ± 0.041 | 2.02 | – | 3.29 | 2.8
10 | SG28 HEADNECK | 1.05 ± 0.11 | 1.12 ± 0.019 | 1 ± 0.076 | 1 ± 0.071 | 0.598 ± 0.042 | 0.299 ± 0.023 | 0.117 ± 0.019 | 0.125 ± 0.015 | 1.07 ± 0.045 | 1.05 ± 0.14 | 1.01 ± 0.14 | 0.994 ± 0.076 | 1.06 ± 0.089 | 1.05 ± 0.12 | 1.02 ± 0.038 | 1.14 ± 0.082 | 2.19 | – | 1.78 | 2.64
11 | HS578T BREAST | 1.07 ± 0.13 | 0.93 ± 0.099 | 0.871 ± 0.056 | 0.992 ± 0.22 | 0.387 ± 0.044 | 0.466 ± 0.021 | 0.298 ± 0.037 | 0.245 ± 0.029 | 0.998 ± 0.085 | 0.872 ± 0.14 | 0.944 ± 0.082 | 0.959 ± 0.075 | 0.923 ± 0.12 | 0.985 ± 0.12 | 1.01 ± 0.068 | 0.897 ± 0.17 | 2.21 | 2.8 | – | 2.39
12 | H23 LUNG | 1.01 ± 0.051 | 1.04 ± 0.023 | 1.06 ± 0.057 | 1.04 ± 0.052 | 0.43 ± 0.0053 | 0.268 ± 0.013 | 0.037 ± 0.0027 | 0.0373 ± 0.0035 | 0.962 ± 0.017 | 0.966 ± 0.044 | 0.974 ± 0.024 | 0.993 ± 0.046 | 0.997 ± 0.058 | 1.04 ± 0.03 | 0.964 ± 0.02 | 0.966 ± 0.025 | 2.03 | 2.6 | 1.57 | –
13 | DU4475 BREAST | 1.07 ± 0.29 | 0.979 ± 0.18 | 1.04 ± 0.17 | 1.06 ± 0.26 | 0.03 ± 0.013 | 0.0313 ± 0.0065 | 0.029 ± 0.0052 | 0.0317 ± 0.0072 | 0.746 ± 0.054 | 1 ± 0.31 | 0.784 ± 0.2 | 0.798 ± 0.17 | 0.687 ± 0.23 | 0.743 ± 0.24 | 0.721 ± 0.4 | 0.704 ± 0.29 | 1.76 | 1.86 | – | 2.46
14 | HCC202 BREAST | 1.37 ± 0.51 | 0.842 ± 0.83 | 0.874 ± 0.71 | 1.11 ± 0.68 | 0.514 ± 0.12 | 0.534 ± 0.12 | 0.218 ± 0.053 | 0.186 ± 0.043 | 1.28 ± 0.11 | 1.25 ± 0.14 | 1.32 ± 0.35 | 1.3 ± 0.28 | 1.32 ± 0.14 | 1.78 ± 0.35 | 1.2 ± 0.19 | 1.24 ± 0.067 | 2.33 | – | 1.39 | 2.24
15 | BT20 BREAST | 1.14 ± 0.047 | 1.1 ± 0.088 | 1.14 ± 0.05 | 1.094 ± 0.0083 | 0.738 ± 0.039 | 0.411 ± 0.063 | 0.329 ± 0.046 | 0.298 ± 0.052 | 1.02 ± 0.028 | 1.05 ± 0.12 | 1.07 ± 0.033 | 1.03 ± 0.048 | 1.12 ± 0.068 | 1.08 ± 0.081 | 0.958 ± 0.12 | 0.969 ± 0.18 | 2.46 | 1.76 | – | 3.17
